Reference: PMC7900207, “Checkpoint inhibition through small molecule-induced internalization of programmed death-ligand 1” (Nature Communications, 2021)

Key:
[1] = biological target: T1, programmed death-ligand 1 (PD-L1, hPD-L1) (Homo sapiens, UniProt Q9NZQ7); test: co-crystal structure at […] Å (PD-L1 homodimer); IC50 from PD-1/PD-L1 HTRF assay; PD-L1/PD-L1 dimerization HTRF; format: binding
T1 construct: gene CD274; human PD-L1(18–134) with 6xHis carboxyl-terminal tag (crystal structure); recombinant Human PD-L1-His (HTRF)

cell surface PD-L1 = biological target: T2, cell surface PD-L1 (Homo sapiens, UniProt Q9NZQ7); test: cell-based
T2 construct: gene CD274

PD-1/PD-L1 = system: T3, PD-1/PD-L1; test: cells; set-up: species or system Jurkat PD-1 effector cells with PD-L1 aAPC/CHO-K1; PD-1/PD-L1 blockade bioassay, NFAT luciferase reporter, Bio-Glo luminescence; conditions: Homo sapiens, Jurkat; NFAT reporter bioassay
T3 construct: PD-L1 on aAPC/CHO-K1 cells, PD-1 on Jurkat effector cells (Promega)
Description: BioAssay is designed to measure luciferase activity showing the EC50 level of PD-1/PD-L1 blocking by small molecules targeting PD-L1 protein in the cell. PD-1 effector cells were incubated with PD-L1 aAPC/CHO-K1 cells in the absence or presence of small molecules or αPD-L1 blocking antibodies, as indicated titration according to the manufacturer’s instruction (Promega). Bio-Glo™ Reagent was added and luminescence quantified. Data were analyzed using GraphPad Prism. Small molecules were first screened in a cell-free in vitro homogeneous time-resolved fluorescence (HTRF) assay, utilizing αPD-L1 (MIH1) and αPD-1 (nivolumab) antibodies as positive controls. […] It has been reported that a small molecule can stabilize a dimer form of PD-L1 through interactions with antiparallel residues in the hydrophobic dimer interface. To test if compound A can induce intermolecular PD-L1 interactions in solution, we developed a homodimer HTRF assay. […] In this assay, preventing the PD-1/PD-L1 interaction results in a release of constitutive NFAT reporter suppression and increases luciferase activity (relative luminescence units). […] We determined if compound A cellular bioassay potency could translate into immunomodulatory effects on primary human immune cells. […]

T1 sequence (Q9NZQ7 18-134): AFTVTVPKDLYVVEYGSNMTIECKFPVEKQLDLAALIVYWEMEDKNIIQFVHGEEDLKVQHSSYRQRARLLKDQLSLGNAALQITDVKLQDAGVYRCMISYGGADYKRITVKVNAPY
T2 sequence (Q9NZQ7 whole entry): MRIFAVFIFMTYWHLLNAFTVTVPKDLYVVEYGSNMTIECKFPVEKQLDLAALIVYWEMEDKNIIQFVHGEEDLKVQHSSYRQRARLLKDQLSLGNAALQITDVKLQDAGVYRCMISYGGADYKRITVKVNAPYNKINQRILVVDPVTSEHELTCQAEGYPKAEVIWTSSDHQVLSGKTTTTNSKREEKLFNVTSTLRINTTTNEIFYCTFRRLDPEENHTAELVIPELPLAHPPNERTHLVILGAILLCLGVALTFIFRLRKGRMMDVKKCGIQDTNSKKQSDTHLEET

Q: Which IC50 [1] does the source give for Cc1c(NC(=O)c2ccc(CNCCO)cn2)cccc1-c1cccc(NC(=O)c2ccc(CNCCO)cn2)c1C [compound A, ARB-272572] here?
A: The IC50 was 0.4 nM.

Q: Which results are given for Cc1c(NC(=O)c2ccc(CNCCO)cn2)cccc1-c1cccc(NC(=O)c2ccc(CNCCO)cn2)c1C [ARB-272572]?
A: IC50 (cell surface PD-L1): 2.1 nM; EC50 (PD-1/PD-L1): 17.9 nM
